13 compounds from ChEMBL document CHEMBL1201862, “PubChem BioAssay data set” (2004) can be followed below.

Assay [1] in a line: inhibition of ARNT PAS-B/TACC3 complex formation – biochemical, AlphaScreen, cherry-picked samples, confirmation (AID 651703).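 Note: His-tagged ARNT PAS-B domain paired with GST-TACC3 E629A dimer coactivator fragment; potency of inhibitors that break up the complex and lower AlphaScreen signal.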 The assay is classed as functional, Homo sapiens. (In Alpha technology, singlet oxygen from a donor bead excites a nearby acceptor bead.)
Assay [2] relates to Streptococcus sp. 'group A'. Put plainly: Streptococcus pyogenes SK(-)GAS viability under kanamycin – luminescence, BacTiterGlo, confirmation, counter-screen for streptokinase expression inhibitor project, dose response (AID 1900). The assay is classed as functional, organism-based. For orientation: A counterscreen serves to expose hits that act by an unwanted route or on another target.

The target in another assay is T1, Streptokinase A (Streptococcus pyogenes serotype M1, UniProt P10520).
T1 sequence (P10520 whole entry): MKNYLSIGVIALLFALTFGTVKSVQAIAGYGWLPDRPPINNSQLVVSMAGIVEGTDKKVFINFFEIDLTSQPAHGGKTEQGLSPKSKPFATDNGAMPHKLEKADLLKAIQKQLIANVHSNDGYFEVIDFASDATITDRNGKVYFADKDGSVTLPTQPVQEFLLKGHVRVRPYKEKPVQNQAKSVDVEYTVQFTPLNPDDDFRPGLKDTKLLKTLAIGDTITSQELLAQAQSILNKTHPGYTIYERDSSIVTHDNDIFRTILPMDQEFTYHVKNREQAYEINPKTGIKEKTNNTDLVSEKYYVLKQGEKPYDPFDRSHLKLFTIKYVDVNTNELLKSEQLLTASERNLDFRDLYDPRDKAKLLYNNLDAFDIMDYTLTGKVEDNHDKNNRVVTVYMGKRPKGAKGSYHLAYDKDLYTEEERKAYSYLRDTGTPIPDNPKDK
Put plainly: viability-normalized secreted streptokinase activity reduction – plasminogen activation absorbance, OD405, dose response (AID 1914).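 Note: secreted streptokinase activity via plasminogen activation per viability signal from cell pellet.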 The class given is functional, Streptococcus pyogenes M1 GAS.

The subject of a further assay is Streptococcus. Put plainly: GAS UMAA2166 growth inhibition – luminescence, BacTiterGlo, counter-screen for streptokinase expression inhibitor project, dose response (AID 1915).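 Note: potency for reduction of bacterial viability or growth.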 The class given is functional, organism-based.
In assay [3] the target is Photoreceptor-specific nuclear receptor (Homo sapiens, UniProt Q9Y5X4). The assay is classed as functional, cell-based.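 Note: CHO-S cells with Gal4-NCOR and VP16-NR2E3 two-hybrid luciferase reporter.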
Assay [4] addresses T2, Carboxy-terminal domain RNA polymerase II polypeptide A small phosphatase 1 (Homo sapiens, UniProt Q9GZU7).
T2 sequence (Q9GZU7 whole entry): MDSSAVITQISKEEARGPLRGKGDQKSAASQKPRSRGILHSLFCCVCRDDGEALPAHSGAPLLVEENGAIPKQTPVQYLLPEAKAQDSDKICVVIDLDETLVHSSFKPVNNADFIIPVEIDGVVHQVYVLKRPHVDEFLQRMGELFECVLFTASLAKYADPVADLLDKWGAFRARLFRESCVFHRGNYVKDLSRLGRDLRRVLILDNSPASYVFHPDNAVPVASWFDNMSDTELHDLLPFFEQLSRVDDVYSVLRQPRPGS
Briefly: CTDSP1 inhibitors, concentration-response, biochemical, absorbance readout, ultra-high-throughput screen actives (AID 540297). The class given is functional.

The target of assay [5] is ADP-ribosylation factor GTPase-activating protein 1 (Rattus norvegicus, UniProt Q62848). Put plainly: Fluorescence polarization-based biochemical high throughput dose response screening assay to identify inhibitors of ADP-ribosylation factor GTPase activating protein 1 (ARFGAP1). The class given is functional.
The target in assay [6] is T3, Mitochondrial peptide methionine sulfoxide reductase (Bos taurus, UniProt P54149). Put plainly: Absorbance-based biochemical high throughput dose response assay for activators of Methionine sulfoxide reductase A (MsrA). The assay is classed as functional.
Assay [7] has as its target Hepatocyte nuclear factor 4-alpha (Homo sapiens, UniProt P41235). The class given is functional, cell-based.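 Note: biochemical luminescence-based dose-response counterscreen measuring inhibition of HNF4 dimerization, run alongside a screen for blockers of ABHD5–perilipin-5 interaction; split luciferase complementation of HNF4 fusion proteins in cell lysate measuring dimerization.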
Assay [8] is described as follows: Trypanosoma cruzi growth suppression in host cells – NIH3T3 host cells, beta-gal luminescence, confirmation (AID 2044).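 Note: intracellular parasites grown in NIH/3T3 mouse fibroblasts as host cells; luminescent beta-galactosidase reporter signal from transgenic T. cruzi replicating inside host cells; inhibitors lower the luminescence signal.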 The class given is functional, cell-based.
Assay [9] in a line: NIH3T3 cell viability loss – ATP luminescence, mouse fibroblasts, counter-screen, dose response (AID 2010).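 Note: cells exposed to compound for about 90 hours before reading.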 The assay is classed as functional, cell-based.
Assay [10] deals with T4, Ubiquitin-conjugating enzyme E2 N (Homo sapiens, UniProt P61088).
T4 sequence (P61088 whole entry): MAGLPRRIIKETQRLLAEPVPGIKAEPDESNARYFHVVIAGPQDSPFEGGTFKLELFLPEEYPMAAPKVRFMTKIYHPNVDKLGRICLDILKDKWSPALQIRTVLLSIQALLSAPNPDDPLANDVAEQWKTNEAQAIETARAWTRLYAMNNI
The class given is functional.

Assay [11] addresses Neurotensin receptor type 1 (Homo sapiens, UniProt P30989). The class given is functional.
The target of a further assay is Melanocortin receptor 4 (Homo sapiens, UniProt P32245). The class given is functional, cell-based.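 Note: Cell-based assay with luminescence read-out, confirmatory dose-response testing for agonist activity of biased ligands at MC4R; human U2OS cells with tagged receptor and beta-arrestin; potency of agonists that increase receptor coupling to beta-arrestin.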
Assay [12] concerns the target Potassium voltage-gated channel subfamily KQT member 2 (Rattus norvegicus, UniProt O88943). Put plainly: blockers of KCNQ2 channel current – cell-based, automated electrophysiology, set II, rat KCNQ2, dose response (AID 588637). The class given is functional.
A short description of assay [13]: bead-based luminescence quenchers, dual-tagged ARNT – biochemical, AlphaScreen, cherry-pick, artefact control for ARNT-TACC3 interaction inhibitor project, dose response (AID 651705).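 Note: AlphaScreen bead proximity signal that flags compounds interfering with the detection technology; potency reflects signal decrease which marks the compound as an assay artifact.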 The class given is functional.
Assay [14] has as its target ATP-dependent translocase ABCB1 (Homo sapiens, UniProt P08183). Put plainly: inhibition of P-gp mediated JC-1 efflux – Jurkat-DNR cells, flow cytometry, dose response (AID 1689). The class given is functional. Background: A flow cytometer gives signals particle by particle.
A short description of assay [15]: reduction of Shn3 3'UTR-driven luciferase in osteoblasts – cell-based, Clone20 osteoblasts, firefly luciferase, cherry-picked, dose response (AID 624132).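 Note: firefly luciferase luminescence from reporter carrying the Shn3 3'UTR in osteoblasts.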 The class given is functional.
Assay [16] can be described thus: loss of viability in HepG2 cells – cell-based, CellTiter-Glo, cherry-picked, cytotoxicity control for Shn3 inhibitor project, dose response (AID 624134). The assay is classed as functional.
Assay [17] in a line: non-specific 3'UTR reporter inhibition in Clone20-Shn3RL – cell-based, Renilla luciferase, cherry-picked, counter-screen for Shn3 inhibitor project, dose response (AID 624133). The class given is functional.
In another assay the target is Protein Wnt-3a (Mus musculus, UniProt P27467). Briefly: antagonism of Wnt3a pathway luciferase reporter – Wnt-LIGHT cells, luminescence, selectivity assay for Gli-SUFU antagonist project, dose response (AID 651570).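 Note: Wnt-LIGHT reporter cells stimulated with conditioned medium from Wnt3a-producing cells.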 The class given is functional. The note with it: read-out: IC50_Mean.
A further assay has as its target Cytochrome P450 2D6 (Homo sapiens, UniProt P10635).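 Note: CYP2D6 member of a cytochrome P450 panel assay.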
The target in assay [18] is T3, Mitochondrial peptide methionine sulfoxide reductase. The class given is functional.
Assay [19] has as its target DNA (cytosine-5)-methyltransferase 1 (Homo sapiens, UniProt P26358). Put plainly: inhibition of DNA methylation by DNMT1 – biochemical, fluorescent molecular beacon, confirmation (AID 602386). The class given is functional.
The nature of assay [20]: viability loss in HeLa cells – cytotoxicity control for MgcRacGAP inhibitor project, dose response (AID 624300). The class given is functional.
Assay [21] addresses T5, Rac GTPase-activating protein 1 (Homo sapiens, UniProt Q9H0H5).
T5 sequence (Q9H0H5 whole entry): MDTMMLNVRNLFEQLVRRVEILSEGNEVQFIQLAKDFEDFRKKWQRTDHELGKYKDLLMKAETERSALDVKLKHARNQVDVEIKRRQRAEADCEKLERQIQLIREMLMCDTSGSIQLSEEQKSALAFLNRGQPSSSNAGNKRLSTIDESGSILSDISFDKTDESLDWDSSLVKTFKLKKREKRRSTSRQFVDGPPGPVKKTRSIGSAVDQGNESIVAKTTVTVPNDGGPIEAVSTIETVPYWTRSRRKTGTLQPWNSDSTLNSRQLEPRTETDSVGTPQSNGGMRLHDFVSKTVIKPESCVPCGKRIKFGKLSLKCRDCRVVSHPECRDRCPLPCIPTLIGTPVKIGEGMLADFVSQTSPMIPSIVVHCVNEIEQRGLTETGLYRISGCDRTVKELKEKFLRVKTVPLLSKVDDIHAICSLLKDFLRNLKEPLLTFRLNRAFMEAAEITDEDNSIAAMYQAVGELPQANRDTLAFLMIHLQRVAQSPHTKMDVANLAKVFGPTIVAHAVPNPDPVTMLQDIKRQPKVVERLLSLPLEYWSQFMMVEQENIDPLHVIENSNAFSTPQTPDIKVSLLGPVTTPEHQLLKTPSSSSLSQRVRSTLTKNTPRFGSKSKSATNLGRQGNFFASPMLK
Put plainly: blockers of MgcRacGAP-driven Rac1 GTP hydrolysis – biochemical, ADP Hunter fluorescence, primary and confirmatory, confirmation (AID 624330). The class given is functional.

Assay [22] deals with T6, Sentrin-specific protease 1 (Homo sapiens, UniProt Q9P0U3). Put plainly: SENP1 catalytic domain blockers, concentration series – biochemical, kinetic FRET, dose response (AID 651697). The assay is classed as functional. The note with it: read-out: IC50_Mean.
The target of assay [23] is T6, Sentrin-specific protease 1. Briefly: Dose response confirmation of small molecule inhibitors of the catalytic domain of the SUMO protease, SENP1 in a FRET assay. The assay is classed as functional. The following applies: read-out: IC50_Mean.

Molecules are shown by their SMILES. Active and inactive are the calls of the source.

T6 sequence (Q9P0U3 whole entry, the tested form may be a part): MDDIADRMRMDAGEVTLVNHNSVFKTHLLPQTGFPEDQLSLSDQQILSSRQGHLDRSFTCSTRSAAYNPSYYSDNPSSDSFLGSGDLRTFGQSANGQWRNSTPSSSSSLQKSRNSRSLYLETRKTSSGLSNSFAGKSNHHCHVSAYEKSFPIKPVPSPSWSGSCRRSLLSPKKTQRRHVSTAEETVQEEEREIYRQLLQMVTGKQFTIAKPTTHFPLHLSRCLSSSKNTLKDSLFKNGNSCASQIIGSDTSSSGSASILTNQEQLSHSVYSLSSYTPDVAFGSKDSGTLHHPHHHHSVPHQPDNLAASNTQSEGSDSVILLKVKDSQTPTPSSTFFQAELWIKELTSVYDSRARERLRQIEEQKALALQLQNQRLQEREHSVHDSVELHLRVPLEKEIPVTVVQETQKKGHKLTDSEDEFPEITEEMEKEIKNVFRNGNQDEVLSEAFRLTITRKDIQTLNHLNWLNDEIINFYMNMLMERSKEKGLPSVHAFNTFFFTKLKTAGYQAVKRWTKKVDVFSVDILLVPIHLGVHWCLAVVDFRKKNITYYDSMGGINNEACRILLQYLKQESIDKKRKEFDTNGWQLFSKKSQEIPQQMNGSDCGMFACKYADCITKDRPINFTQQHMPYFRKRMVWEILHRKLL
T3 sequence (P54149 whole entry, the tested form may be a part): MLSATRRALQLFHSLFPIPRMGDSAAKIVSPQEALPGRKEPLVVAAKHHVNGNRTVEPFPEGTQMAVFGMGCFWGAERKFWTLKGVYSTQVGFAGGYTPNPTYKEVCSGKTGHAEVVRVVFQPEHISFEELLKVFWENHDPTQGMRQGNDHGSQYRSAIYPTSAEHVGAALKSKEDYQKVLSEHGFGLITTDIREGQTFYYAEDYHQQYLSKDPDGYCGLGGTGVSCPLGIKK
Sequence of ADP-ribosylation factor GTPase-activating protein 1 (Q62848 whole entry): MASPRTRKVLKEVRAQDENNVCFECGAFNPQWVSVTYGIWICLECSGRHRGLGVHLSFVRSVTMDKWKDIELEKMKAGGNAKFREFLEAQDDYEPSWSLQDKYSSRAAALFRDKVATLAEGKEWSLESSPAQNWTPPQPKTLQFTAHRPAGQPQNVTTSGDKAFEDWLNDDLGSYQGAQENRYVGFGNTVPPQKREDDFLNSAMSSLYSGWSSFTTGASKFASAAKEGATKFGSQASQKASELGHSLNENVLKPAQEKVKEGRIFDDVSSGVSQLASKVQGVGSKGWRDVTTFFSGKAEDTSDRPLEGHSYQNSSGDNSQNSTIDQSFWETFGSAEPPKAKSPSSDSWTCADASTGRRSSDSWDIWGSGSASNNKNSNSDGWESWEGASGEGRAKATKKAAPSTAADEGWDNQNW
Sequence of Protein Wnt-3a (P27467 whole entry): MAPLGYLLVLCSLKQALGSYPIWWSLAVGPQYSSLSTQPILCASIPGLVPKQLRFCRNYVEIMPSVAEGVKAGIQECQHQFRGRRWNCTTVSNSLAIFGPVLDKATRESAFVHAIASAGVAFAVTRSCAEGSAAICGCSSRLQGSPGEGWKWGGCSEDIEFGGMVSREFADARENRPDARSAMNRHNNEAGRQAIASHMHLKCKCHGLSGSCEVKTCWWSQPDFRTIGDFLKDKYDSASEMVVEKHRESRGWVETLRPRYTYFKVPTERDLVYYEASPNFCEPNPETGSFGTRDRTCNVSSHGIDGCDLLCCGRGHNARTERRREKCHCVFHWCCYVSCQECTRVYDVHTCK
Sequence of DNA (cytosine-5)-methyltransferase 1 (P26358 whole entry): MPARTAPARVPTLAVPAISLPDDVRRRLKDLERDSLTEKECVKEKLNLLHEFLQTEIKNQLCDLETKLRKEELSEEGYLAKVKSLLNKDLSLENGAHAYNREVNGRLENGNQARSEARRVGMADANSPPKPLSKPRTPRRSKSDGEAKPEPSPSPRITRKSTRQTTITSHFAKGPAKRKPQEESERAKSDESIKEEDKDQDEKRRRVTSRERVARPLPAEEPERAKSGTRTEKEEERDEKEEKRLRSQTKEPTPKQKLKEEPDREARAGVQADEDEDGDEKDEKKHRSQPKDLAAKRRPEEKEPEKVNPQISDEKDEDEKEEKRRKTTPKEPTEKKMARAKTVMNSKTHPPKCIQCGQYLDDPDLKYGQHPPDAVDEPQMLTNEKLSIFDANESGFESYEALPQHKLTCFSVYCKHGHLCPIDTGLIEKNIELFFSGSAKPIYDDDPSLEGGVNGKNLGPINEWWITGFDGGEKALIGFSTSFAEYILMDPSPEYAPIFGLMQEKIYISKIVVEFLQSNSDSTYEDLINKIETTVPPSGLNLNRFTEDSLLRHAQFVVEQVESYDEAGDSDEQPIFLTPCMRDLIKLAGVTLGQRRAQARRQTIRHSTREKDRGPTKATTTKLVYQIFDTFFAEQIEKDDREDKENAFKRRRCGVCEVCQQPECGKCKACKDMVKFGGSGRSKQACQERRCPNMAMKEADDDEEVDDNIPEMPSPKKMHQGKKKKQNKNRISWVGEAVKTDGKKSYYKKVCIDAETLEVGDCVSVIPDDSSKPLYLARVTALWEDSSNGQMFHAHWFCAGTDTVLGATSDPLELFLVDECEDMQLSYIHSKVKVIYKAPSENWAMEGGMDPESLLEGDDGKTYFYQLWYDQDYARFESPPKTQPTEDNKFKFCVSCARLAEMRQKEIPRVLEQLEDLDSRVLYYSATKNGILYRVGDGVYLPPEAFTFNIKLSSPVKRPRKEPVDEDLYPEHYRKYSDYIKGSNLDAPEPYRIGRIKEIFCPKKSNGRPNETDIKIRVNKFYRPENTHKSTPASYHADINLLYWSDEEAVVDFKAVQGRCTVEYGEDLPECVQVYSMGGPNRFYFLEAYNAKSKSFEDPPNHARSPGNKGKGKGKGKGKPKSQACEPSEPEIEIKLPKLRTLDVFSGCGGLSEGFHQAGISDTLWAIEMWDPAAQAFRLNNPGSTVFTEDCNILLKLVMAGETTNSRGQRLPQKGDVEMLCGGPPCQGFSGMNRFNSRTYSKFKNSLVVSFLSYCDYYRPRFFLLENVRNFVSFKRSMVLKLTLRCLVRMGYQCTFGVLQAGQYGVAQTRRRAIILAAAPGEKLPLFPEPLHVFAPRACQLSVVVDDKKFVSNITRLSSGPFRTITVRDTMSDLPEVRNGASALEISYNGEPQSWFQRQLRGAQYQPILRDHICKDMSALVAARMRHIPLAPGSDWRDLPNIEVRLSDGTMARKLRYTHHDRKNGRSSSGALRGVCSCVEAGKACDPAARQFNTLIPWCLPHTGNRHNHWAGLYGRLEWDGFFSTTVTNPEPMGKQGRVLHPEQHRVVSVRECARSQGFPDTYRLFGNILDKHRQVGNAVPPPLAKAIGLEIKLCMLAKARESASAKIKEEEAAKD
Sequence of Melanocortin receptor 4 (P32245 whole entry): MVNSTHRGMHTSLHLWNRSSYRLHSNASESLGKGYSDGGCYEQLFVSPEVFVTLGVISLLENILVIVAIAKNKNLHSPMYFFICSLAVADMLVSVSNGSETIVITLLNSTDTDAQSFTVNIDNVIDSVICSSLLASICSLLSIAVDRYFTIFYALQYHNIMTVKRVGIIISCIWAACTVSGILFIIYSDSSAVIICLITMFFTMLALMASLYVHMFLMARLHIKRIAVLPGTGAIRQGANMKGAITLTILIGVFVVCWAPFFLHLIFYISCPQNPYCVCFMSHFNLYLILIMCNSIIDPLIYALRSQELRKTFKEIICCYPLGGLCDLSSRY
Sequence of ATP-dependent translocase ABCB1 (P08183 whole entry): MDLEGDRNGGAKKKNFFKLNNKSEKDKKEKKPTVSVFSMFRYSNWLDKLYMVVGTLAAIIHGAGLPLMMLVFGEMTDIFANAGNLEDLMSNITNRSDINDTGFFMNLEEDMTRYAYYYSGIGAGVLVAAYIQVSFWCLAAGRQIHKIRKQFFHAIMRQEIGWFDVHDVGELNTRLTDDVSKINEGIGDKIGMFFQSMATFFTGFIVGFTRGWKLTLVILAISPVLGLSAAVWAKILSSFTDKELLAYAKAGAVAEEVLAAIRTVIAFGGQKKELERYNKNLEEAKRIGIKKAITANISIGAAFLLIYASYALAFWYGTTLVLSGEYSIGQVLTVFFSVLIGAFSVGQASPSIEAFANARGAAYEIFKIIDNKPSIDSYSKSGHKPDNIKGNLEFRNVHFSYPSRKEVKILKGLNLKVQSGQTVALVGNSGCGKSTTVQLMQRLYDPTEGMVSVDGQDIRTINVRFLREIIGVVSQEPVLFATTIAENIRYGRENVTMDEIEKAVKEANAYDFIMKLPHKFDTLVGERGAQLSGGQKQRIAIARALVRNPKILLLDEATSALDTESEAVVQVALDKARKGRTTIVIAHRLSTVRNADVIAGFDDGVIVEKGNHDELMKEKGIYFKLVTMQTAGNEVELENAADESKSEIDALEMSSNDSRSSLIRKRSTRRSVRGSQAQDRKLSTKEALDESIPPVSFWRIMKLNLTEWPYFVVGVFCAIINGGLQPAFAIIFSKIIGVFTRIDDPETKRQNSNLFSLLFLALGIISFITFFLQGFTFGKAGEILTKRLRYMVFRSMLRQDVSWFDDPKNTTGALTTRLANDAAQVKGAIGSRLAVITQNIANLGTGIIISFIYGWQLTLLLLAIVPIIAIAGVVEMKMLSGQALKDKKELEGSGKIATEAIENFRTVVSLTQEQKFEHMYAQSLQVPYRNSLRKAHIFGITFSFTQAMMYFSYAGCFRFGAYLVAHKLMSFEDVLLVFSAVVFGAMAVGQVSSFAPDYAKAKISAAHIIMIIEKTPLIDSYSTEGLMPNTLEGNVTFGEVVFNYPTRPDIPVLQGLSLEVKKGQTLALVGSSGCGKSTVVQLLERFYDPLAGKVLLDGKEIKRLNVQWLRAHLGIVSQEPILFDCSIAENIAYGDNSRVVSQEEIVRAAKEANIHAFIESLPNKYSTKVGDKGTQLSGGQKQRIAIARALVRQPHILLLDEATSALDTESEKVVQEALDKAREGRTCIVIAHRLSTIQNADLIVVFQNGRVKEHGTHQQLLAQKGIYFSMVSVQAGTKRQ

For orientation: AC50 means the midpoint of the concentration-response curve, whichever way the signal moves. Turning to `O=C1c2cccc3cccc(c23)C(=O)N1CCCCCc1nnc(S)o1`, the AC50 in assay [1] was 102 µM (active).

In general, EC50 refers to the concentration at which the effect is half-maximal. `CCN(c1ccccc1)S(=O)(=O)c1ccc(C(=O)Nc2nnc(CSC)o2)cc1`: the EC50 in assay [2] was 3.5 µM (active); on Streptokinase A it was > 150 µM (not active); in the assay on Streptococcus it was 15 µM (active). In addition, the IC50 in assay [3] is 8.64 µM (active).

With `O=C(N/N=C/c1sc(=O)n(Cc2ccc(Br)cc2)c1Cl)c1ccco1`, the IC50 in [4] was 3.55 µM (active); in assay [5], 34.3 µM (inactive).

Turning to `CN(CC(=O)Nc1ccccc1N1CCOCC1)S(=O)(=O)c1ccc(Cl)cc1`, in assay [6], the EC50 was > 104 µM (inactive).

As for `Cc1cccc(C)c1NC(=O)C(c1cccc2ccccc12)n1c(=O)c(-c2ccco2)nc2ccccc21` (stereo not drawn), in assay [7], the IC50 was 2.56 µM (active).

With `CCCOC(=O)c1cccc(Nc2nc(-c3cccnc3)nc3ccccc23)c1`, the EC50 in assay [8] was 534 nM (active); in [9] it was 9.22 µM (active); in assay [11] it was > 40 µM (inactive); on Melanocortin receptor 4, > 89.3 µM (inactive). Besides, in assay [10], the IC50 is > 20 µM (inactive).

In the case of `CC(C)(C)N1CC(c2nc3ccccc3n2Cc2ccc(Cl)cc2)CC1=O` (stereo not drawn), the IC50 in [12] was 1.23 µM (active).

As to `Nc1nc(CN2CCCCCC2)nc(Nc2ccccc2)n1`, the AC50 in assay [13] is 133 µM (active).

Consider `CCCCn1c(O)c(/N=N/c2ccccn2)c2ccccc21`, for which, in assay [14], the EC50 was 23.9 µM (inactive).

Regarding `O=c1c2ccccc2nc2n1C(CSCc1cccc(C(F)(F)F)c1)CS2` (stereo not drawn), the AC50 is 1.68 µM (active) in assay [15], 3.22 µM (active) in assay [16], 863 nM (active) in assay [17] and 7.08 µM (inconclusive) on Cytochrome P450 2D6. For the same compound, the IC50 at Protein Wnt-3a was 2.01 µM (active).

Take `Cc1ccc(C(=O)N/N=C/C=C/c2ccccc2)o1`: in assay [18], the IC50 was 134 µM (inactive).

What is called CC50 is the concentration giving 50% cytotoxicity. For the compound `c1ccc2c(c1)c1c(c3ccccc32)CN2CCCC2C1` (stereo not drawn), the IC50 was > 99 µM (inactive) in [19] and 111 µM (active) in assay [21]. For the same compound, in [20], the CC50 is 100 µM (active).

As for `N#Cc1ccc(-c2nc3ccc(Cl)cn3c2Cc2ccccc2C(F)(F)F)cc1`, the results for the IC50 in assay [22] and in assay [23] were 9.87 µM (active) and 8.47 µM (active), respectively.
